Measured values: patent US5591891A, “N-[Mercaptoacyl (amino acid or peptide ) ] compounds and S-lipophiIic aliphatic carbonyl derivatives thereof as antihypertensives” (Institut National de la Sante et de la Recherche Medicale …, priority 1994, dated 1997)

Key:
[1] = biological target: T1, NEP (Rattus norvegicus, UniProt P07861); settings: aids in reducing blood pressure; cited from earlier work
T1 construct: thereby aids in reducing blood pressure in the rat; host or cells: rat, in vivo
T1 sequence (P07861 1-750): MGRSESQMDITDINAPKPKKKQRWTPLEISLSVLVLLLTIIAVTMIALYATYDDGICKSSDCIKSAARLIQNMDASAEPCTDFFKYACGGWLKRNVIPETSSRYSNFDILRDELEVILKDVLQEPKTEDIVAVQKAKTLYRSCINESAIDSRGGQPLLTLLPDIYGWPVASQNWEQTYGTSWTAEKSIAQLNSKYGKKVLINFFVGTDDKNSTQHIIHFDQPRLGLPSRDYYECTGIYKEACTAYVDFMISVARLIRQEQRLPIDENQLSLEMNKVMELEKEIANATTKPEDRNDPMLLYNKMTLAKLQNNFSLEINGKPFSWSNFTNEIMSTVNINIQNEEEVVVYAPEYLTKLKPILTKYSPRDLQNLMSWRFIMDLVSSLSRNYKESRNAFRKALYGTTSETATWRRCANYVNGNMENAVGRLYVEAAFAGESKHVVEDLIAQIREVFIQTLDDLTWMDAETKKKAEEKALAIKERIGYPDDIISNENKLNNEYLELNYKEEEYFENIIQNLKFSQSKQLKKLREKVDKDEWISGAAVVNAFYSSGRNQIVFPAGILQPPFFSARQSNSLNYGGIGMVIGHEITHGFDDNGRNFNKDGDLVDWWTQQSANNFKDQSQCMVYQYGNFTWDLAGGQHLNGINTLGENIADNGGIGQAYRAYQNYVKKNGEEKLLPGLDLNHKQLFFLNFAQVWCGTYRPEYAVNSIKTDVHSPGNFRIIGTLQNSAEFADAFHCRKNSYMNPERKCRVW

[2] = biological target: T2, NEP (Mus musculus, UniProt Q61391); test: In vivo inhibition of NEP in mouse kidney after oral administration ([3H]HACBOGly binding); settings: oral 2.6×10^-5 mole/kg, mean of three determinations
T2 construct: the kidney is rapidly set apart and homogenized at 4° C. in a Tris HCl buffer; from tissue; host or cells: mouse kidney (in vivo, then homogenate)
T2 sequence (Q61391 1-750): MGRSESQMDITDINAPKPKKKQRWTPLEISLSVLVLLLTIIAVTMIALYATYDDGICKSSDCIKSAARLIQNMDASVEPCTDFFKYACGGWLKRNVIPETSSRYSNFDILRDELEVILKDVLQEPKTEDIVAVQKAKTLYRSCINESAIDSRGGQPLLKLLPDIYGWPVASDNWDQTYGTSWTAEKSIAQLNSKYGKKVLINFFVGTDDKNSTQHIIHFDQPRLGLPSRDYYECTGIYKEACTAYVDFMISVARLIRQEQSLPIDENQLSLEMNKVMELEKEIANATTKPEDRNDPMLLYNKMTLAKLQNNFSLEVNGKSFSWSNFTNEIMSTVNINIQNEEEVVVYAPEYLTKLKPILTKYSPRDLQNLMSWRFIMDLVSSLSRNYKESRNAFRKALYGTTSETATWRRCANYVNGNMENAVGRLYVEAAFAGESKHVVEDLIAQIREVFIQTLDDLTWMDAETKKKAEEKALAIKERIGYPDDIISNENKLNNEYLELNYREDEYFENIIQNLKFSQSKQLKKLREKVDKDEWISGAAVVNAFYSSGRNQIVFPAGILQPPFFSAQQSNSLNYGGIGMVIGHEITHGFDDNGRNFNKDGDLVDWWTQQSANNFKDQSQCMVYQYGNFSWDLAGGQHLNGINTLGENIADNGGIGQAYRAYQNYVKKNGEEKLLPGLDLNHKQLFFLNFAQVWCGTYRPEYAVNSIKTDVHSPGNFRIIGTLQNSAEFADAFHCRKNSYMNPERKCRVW
From the text: (§1) [S,S,S]-N-[2-Adamantoylthiomethyl-1-oxo-3-phenylbutyl]alanine, a diastereomeric mixture of N-[2-acetylthiomethyl-1-oxo-3-phenylbutyl]alanine (four diastereomers) and a control solution of saline are orally administered at a concentration of 2.6×10^-5 mole/kg) in mice at t=o.
(§2) The inhibition of NEP in the kidney is expressed as the difference (in %) between specific [^3 H]HACBOGly binding in the absence of inhibitor (controls injected with saline) and in the presence of inhibitor. The inhibition values in Table V are the mean value of three determinations.

[3] = biological target: T3, ACE (Mus musculus, UniProt P09470); test: In vivo inhibition of ACE in mouse after oral administration ([3H]Trandaloprilate binding); settings: oral 2.6×10^-5 mole/kg, mean of three determinations
T3 construct: from tissue; host or cells: mouse tissue in vivo
T3 sequence (P09470 35-1312): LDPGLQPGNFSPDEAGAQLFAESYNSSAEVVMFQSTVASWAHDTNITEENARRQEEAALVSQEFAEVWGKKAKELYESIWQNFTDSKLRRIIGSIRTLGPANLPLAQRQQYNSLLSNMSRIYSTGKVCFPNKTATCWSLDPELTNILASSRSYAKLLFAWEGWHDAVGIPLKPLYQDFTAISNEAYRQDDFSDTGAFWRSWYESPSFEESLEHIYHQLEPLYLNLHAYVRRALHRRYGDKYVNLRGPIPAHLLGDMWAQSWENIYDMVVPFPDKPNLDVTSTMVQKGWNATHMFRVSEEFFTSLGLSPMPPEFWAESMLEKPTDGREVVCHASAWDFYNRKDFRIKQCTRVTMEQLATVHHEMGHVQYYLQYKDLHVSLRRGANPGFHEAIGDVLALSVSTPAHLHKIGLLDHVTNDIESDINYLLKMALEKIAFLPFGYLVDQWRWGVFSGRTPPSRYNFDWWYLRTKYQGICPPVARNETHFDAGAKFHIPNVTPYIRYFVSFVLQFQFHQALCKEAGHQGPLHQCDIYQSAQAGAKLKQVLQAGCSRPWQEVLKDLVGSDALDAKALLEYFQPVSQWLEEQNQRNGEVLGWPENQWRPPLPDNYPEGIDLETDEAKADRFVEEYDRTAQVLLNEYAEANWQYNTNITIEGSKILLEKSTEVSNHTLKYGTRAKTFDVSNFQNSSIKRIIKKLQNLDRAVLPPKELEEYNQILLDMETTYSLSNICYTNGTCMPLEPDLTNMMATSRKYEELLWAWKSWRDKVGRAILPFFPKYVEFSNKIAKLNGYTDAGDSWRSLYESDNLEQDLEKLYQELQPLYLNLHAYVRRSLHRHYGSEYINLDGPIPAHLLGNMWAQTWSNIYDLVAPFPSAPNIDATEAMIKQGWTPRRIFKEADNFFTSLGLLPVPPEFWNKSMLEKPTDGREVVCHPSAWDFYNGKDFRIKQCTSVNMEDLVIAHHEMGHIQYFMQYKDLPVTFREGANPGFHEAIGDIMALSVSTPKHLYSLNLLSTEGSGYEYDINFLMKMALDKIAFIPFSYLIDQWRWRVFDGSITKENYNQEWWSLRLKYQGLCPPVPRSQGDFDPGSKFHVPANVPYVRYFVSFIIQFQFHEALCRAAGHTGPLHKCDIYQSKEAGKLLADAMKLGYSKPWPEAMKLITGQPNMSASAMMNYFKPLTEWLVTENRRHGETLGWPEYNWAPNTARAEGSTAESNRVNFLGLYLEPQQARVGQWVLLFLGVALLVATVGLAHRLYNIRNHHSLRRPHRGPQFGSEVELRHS
From the text: as §1, §2
The protocol in Example 91 is used also to determine […] inhibition except for the following: the selective tritiated ACE inhibitor is [^3 H]Trandaloprilate (0.5 μCi); and the non-specific binding is determined by the co-administration of [^3 H]Trandaloprilate with 1000 eq. of captopril.

O=C(O)CNC(=O)C(CS)Cc1ccccc1 (racemic) [Thiorphan, N-(2-mercapto-methyl-3-phenyl-1-oxopropyl)glycine]
half-life of circulating auricular natriuretic peptide [1]: capable of augmenting the half-life of circulating auricular natriuretic peptide

C[C@H](NC(=O)[C@@H](CSC(=O)C12CC3CC(CC(C3)C1)C2)[C@H](C)c1ccccc1)C(=O)O [91(A), [S,S,S]--N-[2-adamantoylthiomethyl-1-oxo-3-phenylbutyl]alanine]
% Inhibition NEP ([2]; time 30 min): 85% | % Inhibition NEP ([2]; time 240 min): 70% | % Inhibition ACE ([3]; time 30 min): 75% | % Inhibition ACE ([3]; time 240 min): 30%

CC(=O)SCC(C(=O)N[C@@H](C)C(=O)O)C(C)c1ccccc1 (stereo partly drawn) [91(B), N-[2-acetylthiomethyl-1-oxo-3-phenylbutyl]alanine]
% Inhibition NEP ([2]; time 30 min): 65% | % Inhibition NEP ([2]; time 240 min): 45% | % Inhibition ACE ([3]; time 30 min): 30% | % Inhibition ACE ([3]; time 240 min): 15%
